Reference: BigSolDB 2.1

O=C(O)c1cc(O)c(O)c(O)c1
solubility (mole fraction) (in water, 292.18 K): 0.00098 | solubility (mole fraction) (in water, 298 K): 0.0011 | solubility (mole fraction) (in water, 303.09 K): 0.00142 | solubility (mole fraction) (in water, 308.21 K): 0.0019 | solubility (mole fraction) (in water, 313.04 K): 0.00244 | solubility (mole fraction) (in water, 318.15 K): 0.00328 | solubility (mole fraction) (in water, 323.15 K): 0.00427 | solubility (mole fraction) (in water, 327.85 K): 0.00523 | solubility (mole fraction) (in water, 333.15 K): 0.00693

COc1ccc(C(=O)O)cc1OC
solubility (mole fraction) (in 2-butanone, 278.95 K): 0.0068 | solubility (mole fraction) (in 2-butanone, 283.15 K): 0.0077 | solubility (mole fraction) (in 2-butanone, 287.95 K): 0.0089 | solubility (mole fraction) (in 2-butanone, 293.32 K): 0.0104 | solubility (mole fraction) (in 2-butanone, 298.13 K): 0.012 | solubility (mole fraction) (in 2-butanone, 303.15 K): 0.014 | solubility (mole fraction) (in 2-butanone, 308.37 K): 0.0162 | solubility (mole fraction) (in 2-butanone, 313.05 K): 0.0184 | solubility (mole fraction) (in 2-butanone, 318.15 K): 0.0212 | solubility (mole fraction) (in 2-butanone, 323.49 K): 0.0246 | solubility (mole fraction) (in ethanol, 278.15 K): 0.0035 | solubility (mole fraction) (in ethanol, 282.93 K): 0.0042 | solubility (mole fraction) (in ethanol, 288.21 K): 0.0051 | solubility (mole fraction) (in ethanol, 293.08 K): 0.0062 | solubility (mole fraction) (in ethanol, 298 K): 0.0074 | solubility (mole fraction) (in ethanol, 303.33 K): 0.0093 | solubility (mole fraction) (in ethanol, 307.9 K): 0.011 | solubility (mole fraction) (in ethanol, 313.3 K): 0.0136 | solubility (mole fraction) (in ethanol, 317.15 K): 0.0161 | solubility (mole fraction) (in ethanol, 323.3 K): 0.0203 | solubility (mole fraction) (in ethyl acetate, 278.3 K): 0.0037 | solubility (mole fraction) (in ethyl acetate, 283.01 K): 0.0044 | solubility (mole fraction) (in ethyl acetate, 288.05 K): 0.0052 | solubility (mole fraction) (in ethyl acetate, 293.15 K): 0.0061 | solubility (mole fraction) (in ethyl acetate, 298 K): 0.0072 | solubility (mole fraction) (in ethyl acetate, 303.13 K): 0.0083 | solubility (mole fraction) (in ethyl acetate, 308.07 K): 0.0099 | solubility (mole fraction) (in ethyl acetate, 313.15 K): 0.0116 | solubility (mole fraction) (in ethyl acetate, 318.06 K): 0.0133 | solubility (mole fraction) (in ethyl acetate, 323.37 K): 0.0157 | solubility (mole fraction) (in isobutanol, 277.9 K): 0.0015 | solubility (mole fraction) (in isobutanol, 283.25 K): 0.002 | solubility (mole fraction) (in isobutanol, 288.15 K): 0.0026 | solubility (mole fraction) (in isobutanol, 293.04 K): 0.0032 | solubility (mole fraction) (in isobutanol, 298.15 K): 0.0041 | solubility (mole fraction) (in isobutanol, 302.94 K): 0.0052 | solubility (mole fraction) (in isobutanol, 308.1 K): 0.0066 | solubility (mole fraction) (in isobutanol, 313.15 K): 0.0083 | solubility (mole fraction) (in isobutanol, 318.01 K): 0.0105 | solubility (mole fraction) (in isobutanol, 323.33 K): 0.0132 | solubility (mole fraction) (in isopropanol, 278.37 K): 0.0024 | solubility (mole fraction) (in isopropanol, 283.05 K): 0.003 | solubility (mole fraction) (in isopropanol, 288.39 K): 0.0039 | solubility (mole fraction) (in isopropanol, 294.07 K): 0.0051 | solubility (mole fraction) (in isopropanol, 299 K): 0.0063 | solubility (mole fraction) (in isopropanol, 303.17 K): 0.0074 | solubility (mole fraction) (in isopropanol, 308.27 K): 0.0095 | solubility (mole fraction) (in isopropanol, 313.13 K): 0.0118 | solubility (mole fraction) (in isopropanol, 318.15 K): 0.015 | solubility (mole fraction) (in isopropanol, 323.2 K): 0.0183 | solubility (mole fraction) (in methyl acetate, 278.3 K): 0.0042 | solubility (mole fraction) (in methyl acetate, 283.01 K): 0.0049 | solubility (mole fraction) (in methyl acetate, 288.05 K): 0.0058 | solubility (mole fraction) (in methyl acetate, 293.15 K): 0.0068 | solubility (mole fraction) (in methyl acetate, 298 K): 0.008 | solubility (mole fraction) (in methyl acetate, 303.13 K): 0.0095 | solubility (mole fraction) (in methyl acetate, 308.07 K): 0.0111 | solubility (mole fraction) (in methyl acetate, 313.15 K): 0.0131 | solubility (mole fraction) (in methyl acetate, 318.06 K): 0.0152 | solubility (mole fraction) (in methyl acetate, 323.37 K): 0.0177 | solubility (mole fraction) (in n-butanol, 277.9 K): 0.0025 | solubility (mole fraction) (in n-butanol, 283.25 K): 0.003 | solubility (mole fraction) (in n-butanol, 288.15 K): 0.0037 | solubility (mole fraction) (in n-butanol, 293.04 K): 0.0046 | solubility (mole fraction) (in n-butanol, 298.15 K): 0.0057 | solubility (mole fraction) (in n-butanol, 302.94 K): 0.007 | solubility (mole fraction) (in n-butanol, 308.1 K): 0.0089 | solubility (mole fraction) (in n-butanol, 313.15 K): 0.011 | solubility (mole fraction) (in n-butanol, 318.01 K): 0.0134 | solubility (mole fraction) (in n-butanol, 323.33 K): 0.0168 | solubility (mole fraction) (in n-propanol, 278.37 K): 0.0027 | solubility (mole fraction) (in n-propanol, 283.05 K): 0.0033 | solubility (mole fraction) (in n-propanol, 288.39 K): 0.0042 | solubility (mole fraction) (in n-propanol, 293.3 K): 0.0051 | solubility (mole fraction) (in n-propanol, 299 K): 0.0066 | solubility (mole fraction) (in n-propanol, 303.17 K): 0.0079 | solubility (mole fraction) (in n-propanol, 308.27 K): 0.0097 | solubility (mole fraction) (in n-propanol, 313.13 K): 0.0118 | solubility (mole fraction) (in n-propanol, 318.15 K): 0.0146 | solubility (mole fraction) (in n-propanol, 323.2 K): 0.0177
